Measured values taken from PMC5004205, “Spiro[pyrrolidine-3, 3´-oxindole] as potent anti-breast cancer compounds: Their design, synthesis, biological evaluation and cellular target identification” (Scientific Reports, 2016).
In brackets after ≈: the same amount, converted by molar mass. Several values for one entry are separate records, joined by “and”; a condition that tells them apart may be missing. Identical values can stand only once. Entries after “also recorded” stand apart in the source; their conditions may differ.

What was measured:
[1] = tested on: MCF-7 breast cancer cells; assay: MTT colorimetric cell viability assay, MCF-7; format: cell-based; conditions: for inhibition at 50 µM / EC50: Homo sapiens; for inhibition at 50 µM: MCF7, 48 hours, MTT, triplicates, read-out: Percentage inhibition MCF-7; for CTRL-TST/CTRL*100 (inhibition) MCF-7: EC50 plate; for EC50: MCF7, MTT, mean of three experiments
Description: MCF-7 cells were maintained as monolayer in 25 cm^2 culture flasks (T-25) at 37 °C in DMEM medium (GIBCO, St. Louis, USA) supplemented with high glucose, L-glutamine, pyridoxine hydrochloride, 110 mg/L sodium pyruvate, 3.7 g/L NaHCO3 and antibiotics (Penicillin-10,000 units/mL, Streptomycin −10,000 μg/mL, GIBCO, USA). Growth medium (pH 7.4) was prepared by adding 5% heat inactivated FBS (Fetal Bovine Serum, GIBCO, USA) and stored at 4 °C. The medium was changed 10–18 hrs prior to experiment, and cells were confluent at the time of experimentation. Cells were dislodged from flasks by gentle trypsinization containing 0.25% Trypsin. MCF-7 cells were regularly sub-cultured thrice a week in a seeding density of 40,000–50,000 cells/cm^2area. Cell confluency = 70%
The MTT colorimetric viability assay was performed to evaluate the anticancer effect of compounds. 30,000 cells/100 μl of media were seeded per well and allowed to stretch and adhere overnight at 37 °C. Following day media was removed and 100 μl fresh media was added to the grown cells. […] There was one positive and one negative control along with 13 compounds. The results were measured all in triplicate in 45 wells of 96 well plate at each time point. Cytotoxic effect was evaluated using ability of live cells to cleave MTT ((3-[4, 5- dimethylthiazol-2-yl]-2, 5-diphenyl tetrazolium bromide)) (Sigma-Aldrich, St Louis, MO, USA), into formazan crystals. Post 48 hours of treatment, 10 μl of MTT (5 mg/ml in PBS) was added to the cells and incubated for 4 hours in dark at 37 °C. The violet colored crystals formed were then dissolved in 100 μl DMSO solvent (Dimethyl Sulfoxide, Sigma-Aldrich, St. Louis, MO, USA). The colorimetric assay was read by a MultiMode Plate Reader (Bio-Rad) at 595 nm. Percentage of Inhibition of drug was calculated by following formula:
O.D1 O.D2 O.D3 AVG CTRL-TST CTRL-TST/CTRL*100 stdev

COS-7 cells = assay: MTT colorimetric cell viability assay, COS-7; format: cell-based; conditions: for inhibition at 50 µM: Chlorocebus aethiops, COS-7, MTT, triplicates, read-out: Percentage inhibition COS-7
Description: (§1) The MTT colorimetric viability assay was performed to evaluate the anticancer effect of compounds. 30,000 cells/100 μl of media were seeded per well and allowed to stretch and adhere overnight at 37 °C. Following day media was removed and 100 μl fresh media was added to the grown cells. Adhered cells were then treated with the compounds 5a-m dissolved in DMSO in triplicates at a standard concentration of 50 μM for 48 hours. There was one positive and one negative control along with 13 compounds. The results were measured all in triplicate in 45 wells of 96 well plate at each time point. Cytotoxic effect was evaluated using ability of live cells to cleave MTT ((3-[4, 5- dimethylthiazol-2-yl]-2, 5-diphenyl tetrazolium bromide)) (Sigma-Aldrich, St Louis, MO, USA), into formazan crystals. Post 48 hours of treatment, 10 μl of MTT (5 mg/ml in PBS) was added to the cells and incubated for 4 hours in dark at 37 °C. The violet colored crystals formed were then dissolved in 100 μl DMSO solvent (Dimethyl Sulfoxide, Sigma-Aldrich, St. Louis, MO, USA). The colorimetric assay was read by a MultiMode Plate Reader (Bio-Rad) at 595 nm. Percentage of Inhibition of drug was calculated by following formula: […]

MCF10A cells = assay: MTT cytotoxicity assay, MCF10A; format: cell-based; conditions: for CTRL-TST/CTRL*100 MCF10A cytotoxicity / Percentage inhibition MCF10A: 48 hours; for CTRL-TST/CTRL*100 MCF10A cytotoxicity: 595 nm; for Percentage inhibition MCF10A: MTT
Description: MCF10A was obtained from American Tissue Type Culture Collection (ATCC, Bethesda, MD). All cells were grown in a humidified atmosphere at 37 °C, with 5% CO2 in air.
as §1
Cytotoxicity assay with MCF 10A
Experiment :MCF10A cytotoxicity assay 48 hours
Raw Data{Wavelength:595.0}
O.D1 O.D2 O.D3 AVG CTRL-TEST CTRL-TST/CTRL*100
(1 picture or pasted object on this page, not shown here)

PKCα kinase = tested on: PKCα kinase; set-up: method as in Shantani UPT Application Notes; conditions: at 1μM; ref Shantani UPT Application Notes; cited from earlier work
MCF-7 cells [2] = assay: DNA fragmentation (DNA-ladder) assay; format: cell-based; conditions: MCF-7, gel electrophoresis
Description: The DMSO (dimethyl sulphoxide)–SDS (sodium dodecyl sulphate)–TE (Tris-EDTA) method: 2 million MCF-7cells were taken as starting material for DNA isolation. Cells were dislodged with Trypsin-EDTA and washed with 1 X PBS. DMSO was added directly to the cell pellet (100 μl) and mixed well by pipetting. TE buffer (pH 7.4) with 2% SDS was added into the mixture with same volume, followed by pipetting. The solution was centrifuged at 3000 rpm at 4 °C and 30 μL of the supernatant was loaded on agarose gel to check the effect of drugs on DNA molecule.

MCF-7 cells [3] = assay: Annexin V/propidium iodide FACS assay; format: cell-based
Description: The assay is based on the ability of the protein annexin V to bind to phosphatidylserine (PS) exposed on the outer membrane leaflet in apoptotic cells (PS also appears on the necrotic cell surface). The annexin V assay was performed following the manufacturer’s instructions (Annexin V-FITC kit,Alexa Fluor). Briefly, the cells were washed with PBS and suspended in pre-diluted binding buffer. The cell density was adjusted to 2 million and 195 μl of cell suspension were mixed with 5 μl Annexin V-FITC and incubated for 10 min in the dark at room temperature. The cells were washed with binding buffer, re-suspended in 195 μl binding buffer, counterstained with 10 μl of the 20 μg/ml propidium iodide stock (final concentration 1 μg/ml) and the data were acquired by BD FACS diva 7.0 at 6 h, 12 h and 24 h.

MCF-7 cells [4] = assay: Cell migration (scratch) assay; format: cell-based; conditions: 24 hours, compared to untreated cells
Description: MCF-7 cells were grown to confluence in six-well tissue culture plastic dishes to a density of ∼0.2 million cells/well. After 24 hrs of seeding, cells were treated with chemical compounds. The medium was removed and the cells were scratched by 200 μL pipette micro tip through the center of the plate. The cultures were washed to remove debris and re-cultured with DMEM containing 10% FBS for cell migration. The cells were imaged at 24 hrs and the migrated distance was measured. Migration rate was calculated by counting five to seven fields per image and the results presented as the average of three independent experiments performed over multiple days.

MCF-7 cells [5] = conditions: cited from earlier work

COc1ccc(C2NCCC23C(=O)Nc2ccccc23)cc1OC (centres unmarked) [Compound 5g]
inhibition at 50 µM [1]: 25.29 ± 0.24%
inhibition at 50 µM (COS-7 cells): 2.39 ± 0.23%

Cc1cc(C)cc(C2NCCC23C(=O)Nc2ccccc23)c1 (centres unmarked) [Compound 5c]
inhibition at 50 µM [1]: 34.46 ± 0.11%
inhibition at 50 µM (COS-7 cells): 28.8 ± 0.13%

O=C1Nc2ccccc2C12CCNC2c1cccc(F)c1 (centres unmarked) [Compound 5e]
CTRL-TST/CTRL*100 (inhibition) MCF-7 ([1]; concentration row 10): -4.013
CTRL-TST/CTRL*100 (inhibition) MCF-7 ([1]; concentration row 20): 8.388
CTRL-TST/CTRL*100 (inhibition) MCF-7 ([1]; concentration row 30): 23.78
CTRL-TST/CTRL*100 (inhibition) MCF-7 ([1]; concentration row 40): 31.55
CTRL-TST/CTRL*100 (inhibition) MCF-7 ([1]; concentration row 50): 52.5
EC50 [1]: 6 µM
inhibition at 50 µM [1]: 54.67 ± 0.08%
Effect on proliferation of healthy MCF10A cells (MCF10A cells): did not inhibit the proliferation; also recorded: little or no effect
CTRL-TST/CTRL*100 MCF10A cytotoxicity (MCF10A cells): 4.48
Percentage inhibition MCF10A (MCF10A cells): 4.48%
Inhibition of proliferation of healthy COS-7 cells (COS-7 cells): did not inhibit the proliferation
inhibition at 50 µM (COS-7 cells): 3.56 ± 0.19%

COc1ccc(C2NCCC23C(=O)Nc2ccccc23)c(F)c1 (centres unmarked) [Compound 5j]
inhibition at 50 µM [1]: 38.72 ± 0.15%
inhibition at 50 µM (COS-7 cells): 7.52 ± 0.15%

Bisindolylmaleimide-III [Bis-III]
Inhibition of PKCα kinase activity (PKCα kinase): 93%

COc1ccc(C2NCCC23C(=O)Nc2ccccc23)cc1 (centres unmarked) [Compound 5h]
inhibition at 50 µM [1]: 50.62 ± 0.24%
inhibition at 50 µM (COS-7 cells): 25.2 ± 0.06%

O=C1Nc2ccccc2C12CCNC2c1c(F)cccc1F (centres unmarked) [Compound 5d]
inhibition at 50 µM [1]: 44.25 ± 0.17%
inhibition at 50 µM (COS-7 cells): 9.22 ± 0.12%

O=C1Nc2ccccc2C12CCNC2c1cc(C(F)(F)F)ccc1C(F)(F)F (centres unmarked) [Compound 5m]
inhibition at 50 µM [1]: 31.81 ± 0.11%
inhibition at 50 µM (COS-7 cells): -0.51 ± 0.29%

O=C1Nc2ccccc2C12CCNC2c1cccc(C(F)(F)F)c1 (centres unmarked) [Compound 5b]
inhibition at 50 µM [1]: 33.1 ± 0.12%
inhibition at 50 µM (COS-7 cells): 20.73 ± 0.11%

Cc1ccc(C2NCCC23C(=O)Nc2ccccc23)cc1 (centres unmarked) [Compound 5a]
inhibition at 50 µM [1]: 35.06 ± 0.09%
inhibition at 50 µM (COS-7 cells): 11.73 ± 0.09%

COc1cc(OC)c(C2NCCC23C(=O)Nc2ccccc23)cc1OC (centres unmarked) [Compound 5i]
DNA fragmentation pattern / mode of cell death (MCF-7 cells [2]): smearing of DNA fragments
CTRL-TST/CTRL*100 (inhibition) MCF-7 ([1]; concentration row 10): 7.139
CTRL-TST/CTRL*100 (inhibition) MCF-7 ([1]; concentration row 20): 20.22
CTRL-TST/CTRL*100 (inhibition) MCF-7 ([1]; concentration row 30): 43.4
CTRL-TST/CTRL*100 (inhibition) MCF-7 ([1]; concentration row 40): 50.54
CTRL-TST/CTRL*100 (inhibition) MCF-7 ([1]; concentration row 50): 66.16
EC50 [1]: 4.01 µM
inhibition at 50 µM [1]: 53.66 ± 0.06%
Effect on proliferation of healthy MCF10A cells (MCF10A cells): did not inhibit the proliferation; also recorded: little or no effect
CTRL-TST/CTRL*100 MCF10A cytotoxicity (MCF10A cells): 0.8
Percentage inhibition MCF10A (MCF10A cells): 0.8%
Mode of cell death by Annexin-PI FACS (MCF-7 cells [3]): necrosis was also confirmed
Inhibition of cell migration of MCF-7 cells (MCF-7 cells [4]): inhibit cell migration
Inhibition of proliferation of healthy COS-7 cells (COS-7 cells): did not inhibit the proliferation
inhibition at 50 µM (COS-7 cells): 15.6 ± 0.09%

CS[C@@]1(C)C(=O)N(C)[C@@](Cc2c[nH]c3ccccc23)(SC)C(=O)N1C [Chaetocochins G]
IC50 in MCF-7 (MCF-7 cells [5]): 16.9 µg/mL (≈ 44.8 µM)
Mode of cell death (MCF-7 cells [5]): Induces Apoptosis

COc1cc([C@@H]2c3cc4c(cc3[C@@H](O[C@@H]3O[C@@H]5CO[C@@H](C)O[C@H]5[C@H](O)[C@H]3O)[C@H]3COC(=O)[C@H]23)OCO4)cc(OC)c1O [Etoposide, reference compound]
inhibition at 50 µM [1]: 71.95 ± 0.11%
CTRL-TST/CTRL*100 (inhibition) MCF-7, positive control ([1]; eto control row of the EC50 plates of 5l, 5e, 5i, concentration not given, listed as eto): 70.96 and 73.49 and 73.1582
inhibition at 50 µM (COS-7 cells): 77.65 ± 0.1%

COc1cccc(C2NCCC23C(=O)Nc2ccccc23)c1 (centres unmarked) [Compound 5f]
inhibition at 50 µM [1]: 38.48 ± 0.18%
inhibition at 50 µM (COS-7 cells): 34.87 ± 0.17%

COc1ccc(C2NCCC23C(=O)Nc2ccccc23)cc1C (centres unmarked) [Compound 5k]
inhibition at 50 µM [1]: 44.4 ± 0.09%
inhibition at 50 µM (COS-7 cells): 7.14 ± 0.19%
